The record followed here is patent US11192903B2, “Zirconium-89 oxine complex as a cell labeling agent for positron emission tomography” (The United States of America, as represented by the …, priority 2014, dated 2021).

Like-named read-outs stand apart in the source and are kept apart here.

Data set [1] deals with BM cells. The protocol: The surface expressions of CD117, sca-1 and lineage markers (CD3, NK1.1, Ly6G, CD2, CD5 and B220) on BM cells were examined before and after ^89Zr-oxine labeling (3.15 kBq/2×10^6) and analyzed by flow cytometry using a FACS Calibur flow cytometer (Becton Dickinson, San Jose, Calif.) and analyzed using FlowJo software (Tree Star, Inc., Ashland, Oreg.). BM cell differentiation capability was examined by culturing the ^89Zr-labeled and non-labeled cells with GM-CSF (20 ng/ml) and IL-15 (25 nM) for differentiation to DCs and NK/NK-T cells (n=3). On day 10, the cells were harvested, stained with anti-CD11c, CD86, and NK1.1 antibodies, and analyzed on flow cytometry. For the GM-CSF culture, cell associated-^89Zr activity and cell number were also examined.

The subject of data set [2] is CTLs. The settings on record: TCR stimulation then withdrawal, vs non-labeled. On the procedure:
(§1) After ^89Zr-oxine complex labeling, DCs were stimulated with LPS (5 ng/ml) overnight. CD8 T cells labeled with ^89Zr-oxine complex were stimulated with plate coated anti-CD3 antibody (10 μg/ml) and anti-CD28 antibody (5 μg/ml) for 3 days, then transferred to an antibody-free culture supplemented with human IL-15 (3 nM).

For the next data set, the system named is DCs. The protocol:
as §1
(§2) CTLs, both labeled and unlabeled, were activated by plate coated anti-CD3 antibody (10 μg/ml) and anti-CD28 antibody (5 μg/ml) for 1.5 day and expression of CD3, CD8, CD44, CD25, CD69, INF-γ and IL-2 which was evaluated by flow cytometry. Bone marrow-derived DCs on day 6 of culture with or without ^89Zr-oxine complex labeling were stimulated with LPS (1 ng/ml) overnight and surface expression of CD11c, CD80, CD86, CD40, MHC class I and MHC class II was examined. In another experiment, ^89Zr-labeled DCs were stimulated with LPS in the presence of OVA overnight, transferred to Rag1KO mice expressing Ly5.2 (2 million cells) pre-injected with CMFDA labeled OT-1 CD8 T cells expressing Ly5.1. Peripheral blood and splenocytes were collected 3.5 days later and dilution of CMFDA in OT-1 T cells was analyzed using flow cytometry gated on Ly5.1+ CD8 T cells.

In data set [3] the test system is BM cells. The protocol:
BM cells were incubated with 11.0-55.5 kBq/10^6 cells of ^89Zr-oxine complex in PBS at 25:1 volume ratios for 20 minutes, washed twice in RPMI media and transferred to a new tube. […] To determine cell viability and retention of ^89Zr after the labeling, BM cells were labeled with 2 different radioactivity doses, 28.12 kBq/10^6 and 8.14 kBq/10^6 cells, and cultured with SCF, FLT3L and TPO (100 ng/ml each). The number of live cells was counted using 0.4% trypan blue dye (Life Technologies) at 0 h, 2 d, 4 d, and 7 d (n=3). At each time point, the cell suspension was spun to separate the supernatant and the cell pellet, and the radioactivity of both fractions was measured by a γ-counter (WIZARD^2 automatic gamma-counter, Perkin Elmer, Waltham, Mass.).
This is another data set of the same source.

The subject of data set [4] is CTLs. The settings on record: TCR stimulation. The protocol: as §2
CTLs were TCR stimulated after the ^89Zr-oxine complex labeling.

The next data set deals with CXCR4 (Mus musculus, UniProt P70658). As to conditions: at 2 h; plerixafor 5 mg/kg i.v. 15 min before cell transfer. On the procedure:
A CXCR4 inhibitor, plerixafor (Adooq Bioscience, Irvine, Calif.), was used to interrogate the role of CXCR4 in BM cell migration (n=4). Mice received an i.v. injection of plerixafor (5 mg/kg) 15 min before and 1 day after the ^89Zr-oxine labeled BM cell transfer (331 kBq/2×10^7 cells). Another group of mice received concurrent i.v. injections of G-CSF (2.5 μg, n=4). Deferoxamine was injected intramuscularly 15 min before and 1, 2, 3 and 4 hr after the cell injection. Serial microPET/CT images were acquired.

Chain of CXCR4 (P70658 whole entry): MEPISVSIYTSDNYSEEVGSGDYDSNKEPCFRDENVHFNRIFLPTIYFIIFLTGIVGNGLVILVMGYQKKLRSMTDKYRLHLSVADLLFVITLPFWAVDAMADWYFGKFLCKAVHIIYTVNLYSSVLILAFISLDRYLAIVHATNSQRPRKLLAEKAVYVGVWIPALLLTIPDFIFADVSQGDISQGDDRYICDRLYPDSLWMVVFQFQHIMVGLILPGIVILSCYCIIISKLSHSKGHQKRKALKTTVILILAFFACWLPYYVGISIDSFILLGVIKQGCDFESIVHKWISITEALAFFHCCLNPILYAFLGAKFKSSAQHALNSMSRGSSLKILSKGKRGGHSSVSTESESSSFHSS

For `c1cnc2c([O][89Zr]([O]c3cccc4cccnc34)([O]c3cccc4cccnc34)[O]c3cccc4cccnc34)cccc2c1` [^89Zr-oxine complex], in the data set with BM cells [1] (10 day culture with GM-CSF or IL-15), the “capacity to proliferate and differentiate” value is “retained the capacity to proliferate and differentiate normally into mature cells”. Moreover, the “expression of CD117, sca-1 and lineage markers” value in the data set on BM cells [1] (BM cells, 3.15 kBq/2×10^6) is listed as “at similar levels to non-labeled controls”. Also, the “proliferation and contraction of labeled CTLs” value in the data set with CTLs [2] is “similarly to the non-labeled controls”. In addition, in the data set with DCs (labeled DCs stimulated with LPS and OVA, injected into mice, flow cytometry 4 days after transfer), the “antigen presentation to OT-1 T cells in vivo” value is “capable of presenting the antigen and inducing T cell activation and proliferation as well as non-labeled DCs”. In the data set on DCs (prior to LPS activation), the “expression of B7 molecules, CD80 and CD86, on DCs” value is given as “slightly increased expression”. Besides, the results for the live cell number result in the data set with BM cells [3] (BM cells labeled at 8.14 kBq/10^6 cells) and in the data set on BM cells [3] (BM cells labeled at 28.12 kBq/10^6 cells) were “slight proliferation after day 4” and “slightly decreased in number”, respectively. Moreover, the “suppression of the proliferation” value in the data set on BM cells [3] (BM cells, lower labeling dose (8.14 kBq/10^6 cells), vs non-labeled control) was “approximately 50%”. In addition, the “production of IFNγ and IL-2” value in the data set on CTLs [4] was “did not negatively affect”. In addition, the “upregulation of CD69, CD25 and CD44 markers” value with CTLs [4] (labeled vs non labeled CTLs) is given as “at the similar levels”.
For `c1cc(CN2CCCNCCNCCCNCC2)ccc1CN1CCCNCCNCCCNCC1` [plerixafor], the “migration of labeled cells to the BM” value at CXCR4 is given as “significantly inhibited”.
